Test results published in US12617762B2, “Carboxy derivatives with antiinflamatory properties” (Sitryx Therapeutics Limited, priority 2019, dated 2026).
Like-named read-outs stand apart in the source and are kept apart here.

Assays:
[1] = Hepatocyte stability assay, mouse; format: in vitro ADME; settings: mouse, hepatocytes; for hepatocyte CLint at 10 μM: Hepatocyte stability Clint; for half-life at 10 μM: Hepatocyte stability T½
Text: (§1) Defrosted cryo-preserved hepatocytes (viability >70%) were used to determine the metabolic stability of a compound via calculation of intrinsic clearance (CIint; a measure of the removal of a compound from the liver in the absence of blood flow and cell binding). Clearance data are particularly important for in vitro work as they can be used in combination with in vivo data to predict the half-life and oral bioavailability of a drug.
(§2) The metabolic stability in hepatocytes assay involves a time-dependent reaction using both positive and negative controls. The cells were pre-incubated at 37° C. then spiked with test compound (and positive control); samples were taken at pre-determined time intervals and were analysed to monitor the change in concentration of the initial drug compound over 60 minutes. A buffer incubation reaction (with no hepatocytes present) acted as a negative control and two cocktail solutions, containing compounds with known high and low clearance values (verapamil/7-hydroxycoumarin and propranolol/diltiazem), acted as positive controls. • 1. The assay was run with a cell concentration of 0.5×10^6 cells/mL in Leibovitz buffer. • 2. All compounds and controls were run in duplicate. • 3. Compound concentration was 10 μM. • 4. All compounds and controls were incubated with both cells and buffer to show turnover was due to hepatic metabolism. • 5. All wells on the incubation plate had 326.7 μL of either cells or buffer added. • 6. Prior to assay, cell and buffer-only incubation plates were preincubated for 10 mins at 37° C. • 7. The assay was initiated by adding compounds, 3.3 μL of 1 mM in 10% DMSO—90% Buffer; final DMSO concentration was 0.1%. • 8. Samples were taken at regular timepoints (0, 5, 10, 20, 40, 60 min) until 60 mins. • 9. Sample volume was 40 μL and was added to 160 μL of crash solvent (acetonitrile with internal standard) and stored on ice. • 10. At the end of the assay, the crash plates were centrifuged at 3500 rpm for 20 mins at 4° C. • 11. 80 μL of clear supernatant was removed and mixed with 80 μL of deionised water before being analysed by LC-MS/MS.
(§3) Raw LC-MS/MS data was exported to, and analysed in, Microsoft Excel for determination of intrinsic clearance. The percentage remaining of a compound was monitored using the peak area of the initial concentration as 100%. Intrinsic clearance and half-life values were calculated using a graph of the natural log of percentage remaining versus the time of reaction in minutes.

[2] = system: NRF2 (nuclear factor erythroid 2-related factor 2); assay: NRF2 +/-GSH activation assay (DiscoverX PathHunter NRF2 translocation kit, U2OS cells); format: cell-based; settings: for NRF2 activation +GSH Emax / NRF2 activation −GSH Emax: normalised to DMF high control
Method in brief: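 Activation is expressed as percent of plate DMF (high) versus no-DMF (low) controls, from luminescence after 6 h compound exposure at 37 °C of U2OS PathHunter cells. The +GSH condition used compound pre-incubated 30 min in 6 mM working GSH; −GSH cells received compound directly.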

[3] = system: IL-1β cytokine output from THP-1s; assay: THP-1 AlphaLISA IL-1β cytokine inhibition assay; format: cell-based; settings: for IC50: Homo sapiens, THP-1, differentiated THP-1 cells, LPS then nigericin; for IL-1β lowering, result in words: THP-1 IL-1β assay
Method in brief: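 IL-1β release by AlphaLISA, expressed as % inhibition against +/− LPS controls on each plate. Differentiation: PMA, 72 h. Sequence: 30 min compound pre-treatment, LPS 24 h, Nigericin 1 h before supernatant harvest, all at 37° C./5% CO2.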

[4] = Hepatocyte stability assay, human; format: in vitro ADME; settings: human, hepatocytes; for hepatocyte CLint at 10 μM: Hepatocyte stability Clint; for half-life at 10 μM: Hepatocyte stability T½
Text: as §1, §2, §3

[5] = +GSH, 30 minute compound-GSH pre-incubation, read-out: NRF2 activation +GSH EC50
[6] = −GSH, U2OS PathHunter cells, 6 hours compound treatment, read-out: NRF2 activation −GSH EC50

| Structure (SMILES) | hepatocyte CLint at 10 μM [1] [µL/min/1e6 cells] | half-life at 10 μM [1] [min] | EC50 [2, 5] [µM] | NRF2 activation +GSH Emax ([2]; +GSH) [%] | EC50 [2, 6] [µM] | NRF2 activation −GSH Emax ([2]; −GSH) [%] | IC50 [3] [µM] | hepatocyte CLint at 10 μM [4] [µL/min/1e6 cells] | half-life at 10 μM [4] [min] | IL-1β lowering, result in words [3] |
| --- | --- | --- | --- | --- | --- | --- | --- | --- | --- | --- |
| C=C(Cc1nc(CCc2ccc(Cl)cc2)no1)C(=O)O [Example 5, 2-((3-(4-chlorophenethyl)-1,2,4-oxadiazol-5-yl)methyl)acrylic acid] | 48 | 40 | 50.4 | 63 | 42.4 | 74 | 45.3 | 8 | 174 | – |
| C=C(Cc1nc(-c2ccc(Cl)cc2)no1)C(=O)O [Example 7, 2-((3-(4-chlorophenyl)-1,2,4-oxadiazol-5-yl)methyl)acrylic acid] | 28 | 49 | 44.5 | 89 | 39.7 | 113 | > 100 | < 6 | > 320 | not effective |
| C=C(Cc1nc(Cc2ccc3ccccc3c2)no1)C(=O)O [Example 9, 2-((3-(naphthalen-2-ylmethyl)-1,2,4-oxadiazol-5-yl)methyl)acrylic acid] | 41 | 25 | 69.9 | 44 | 42.7 | 51 | 54.7 | 7 | 181 | – |
| C=C(Cc1nc(CCCCCCCC(F)(F)F)no1)C(=O)O [Example 11, 2-((3-(8,8,8-trifluorooctyl)-1,2,4-oxadiazol-5-yl)methyl)acrylic acid] | 56 | 18 | 13.1 | 149 | 11.4 | 185 | 8.2 | 30 | 42 | – |
| C=C(Cc1nc(C(C)(C)CCCCC)no1)C(=O)O [Example 12, 2-((3-(2-methylheptan-2-yl)-1,2,4-oxadiazol-5-yl)methyl)acrylic acid] | 15 | 90 | 61.9 | 73 | 53.1 | 85 | > 100 | 16 | 90 | not effective |
| C=C(Cc1nc(Cc2ccc(Cl)c(Cl)c2)no1)C(=O)O [Example 14, 2-((3-(3,4-dichlorobenzyl)-1,2,4-oxadiazol-5-yl)methyl)acrylic acid] | 18 | 72 | 52.2 | 46 | 21.8 | 78 | > 100 | 6 | 240 | not effective |
| C=C(Cc1nc(Cc2ccc(C(C)(C)C)cc2)no1)C(=O)O [Example 15, 2-((3-(4-(tert-butyl)benzyl)-1,2,4-oxadiazol-5-yl)methyl)acrylic acid] | 31 | 35 | > 100 | 33 | 57.1 | 41 | 23.8 | 7.5 | 167 | – |
| C=C(Cc1nc(Cc2cc(Cl)cc(Cl)c2)no1)C(=O)O [Example 16, 2-((3-(3,5-dichlorobenzyl)-1,2,4-oxadiazol-5-yl)methyl)acrylic acid] | 29 | 45 | 23.6 | 149 | 19.4 | 180 | 45.6 | < 4 | > 362 | – |
| C=C(Cc1nc(-c2ccc(CCCC)cc2)no1)C(=O)O [Example 18, 2-((3-(4-butylphenyl)-1,2,4-oxadiazol-5-yl)methyl)acrylic acid] | > 460 | < 3 | 3.8 | 159 | 3.5 | 207 | 15.3 | 159 | 11 | – |
| C=C(Cc1nc(C2(c3cccc(Cl)c3)CC2)no1)C(=O)O [Example 21, 2-((3-(1-(3-chlorophenyl)cyclopropyl)-1,2,4-oxadiazol-5-yl)methyl)acrylic acid] | 62 | 28 | 44 | 81 | 31.7 | 125 | > 100 | 21 | 83 | not effective |
| C=C(Cc1nc(-c2ccc(CCCCC)cc2)no1)C(=O)O [Example 23, 2-((3-(4-pentylphenyl)-1,2,4-oxadiazol-5-yl)methyl)acrylic acid] | > 460 | < 3 | 2.2 | 162 | 1.6 | 209 | 4.6 | 321 | 5 | – |
| C=C(Cc1nc(C2(c3ccc(Cl)cc3)CCC2)no1)C(=O)O [Example 25, 2-((3-(1-(4-chlorophenyl)cyclobutyl)-1,2,4-oxadiazol-5-yl)methyl)acrylic acid] | 17 | 90 | > 100 | 31 | > 100 | 32 | 64.1 | 12 | 104 | – |
| C=C(Cc1nc(Cc2ccc(CCCCC)cc2)no1)C(=O)O [Example 28, 2-((3-(4-pentylbenzyl)-1,2,4-oxadiazol-5-yl)methyl)acrylic acid] | > 460 | < 3 | 4 | 201 | 3 | 264 | 7.7 | 103 | 12 | – |
